# From patent US11896843B2, “Photodynamic therapy devices, systems and methods” (NATIONAL UNIVERSITY OF SINGAPORE, priority 2018, dated 2024)
# Experiments:
# ROS production [1] = assay: ROS production in vitro under direct LED illumination of other photosensitizers; conditions: compared with Ce6
# Excerpt: The system can be adapted for use with other photosensitizers.
# ROS production [2] = assay: ROS production in Ce6 solution around device implanted in adult pig model; conditions: 5 μM Ce6 solution; device 5.1 cm deep on liver surface, wirelessly powered through tissue; vs control solution with no Ce6
# Description: To illustrate that the implantable illumination devices could be powered through thick tissue at depths relevant to human scales, ROS production studies were conducted in an adult pig model.
# FIGS. 16a to 16c show computed tomography (CT) reconstructions of the radio-frequency transmitter and device implanted an adult pig model.
# The control (No Ce6) was a control solution with no Ce6 and the test solution was a solution containing 5 μM Ce6.
# C6 rat glioma cells = assay: Cell kill in C6 rat glioma by UV light triggered PDT; assay type: cell-based; conditions: Ce6 PDT triggered by UV/violet light emitting devices, in vitro
# MB49 cells [3] = assay: Cellular ROS production (Image-iT live Green ROS sensor fluorescence); assay type: cell-based, murine
# Description: (§1) Using Ce6-incubated murine bladder cancer cells, ROS production was further validated against red laser irradiation, the current clinical standard, in two configurations: (i) cells directly exposed to the radio-frequency/laser source, and (ii) cells placed under thick (3 cm) porcine tissue, simulating light delivery to deep tissue regions.
# (§2) FIGS. 18a to 18d illustrate test configurations for investigating ROS production. FIG. 18a illustrates a test configuration in which laser light is directly incident on the MB49 cells and FIG. 18 illustrates a test configuration in which the laser light travels through 3 cm of tissue. The laser illumination was carried out with the following intensity 37.5 mW/cm^2, 4 J/cm^2. FIG. 18c illustrates a test configuration in which a wirelessly powered implantable device is powered without intervening tissue. For this configuration near-field (NF) wireless powering was used. FIG. 18d illustrates a test configuration in which a wirelessly powered implantable device is powered without though 3 cm of tissue. For this configuration mid-field (MF) wireless powering was used.
# FIGS. 21a to 21g show florescence images of treated cells and control cells. FIGS. 21a and 21b show cells treated following incubation with Ce6 and illuminated with respectively, the direct laser configuration and, the though tissue laser configuration. FIGS. 21c and 21d show cells treated following incubation with Ce6 and illuminated with respectively, the near field (direct) wireless configuration and, the though tissue (mid field) wireless configuration. FIGS. 21e to 21g show control scenarios. […] The results were obtained from a fluorogenic, cell-permeable ROS sensor (Image-iT live Green ROS).
# In all cases, significant cell death resulted from oxidative stress.
# MB49 cells [4] = assay: Apoptosis index (TUNEL assay) in MB49 cells; assay type: cell-based, murine
# Description: as §2
# Cell death could be attributed to apoptosis, a widely accepted mechanism for PDT-mediated cytotoxicity. Apoptosis index (TUNEL assay) including positive and negative controls from the assay are shown.
# MB49 cells [5] = assay: Cell viability (MTS assay) of Ce6-incubated MB49 cells after irradiation; assay type: cell-based, murine; conditions: for cell kill (MTS assay): 20 min irradiation, 1.3 mW
# Description: as §1, §2
# Change in cell viability (MTS assay) following 20 min of irradiation in the above light delivery configurations is shown. The light dosing rate was 1.3 mW throughout. Groups include untreated cells, cells exposed to Ce6 alone, cells exposed to light alone and cells incubated with Ce6 and exposed to light from a laser or the device with or without intervening tissue section.
# [6] = test system: solid tumor from MB49 bladder cancer cells; assay: Cancer PDT in C57 BL/6 mice bearing MB49 tumors, wireless light delivery; assay type: in vivo
# Description: Treatments were administered on Day 3 (T1) and Day 9 (T2) with a light dose of 1.3 mW over 30 min. Graphs show mean±s.d. (n=5 per group). The light dose was set to the same level (1.3 mW, 30 min) as used in the in vitro experiments. Devices were implanted in the interstitial space around a solid tumor grown to 4-6 mm diameter from MB49 bladder cancer cells subcutaneously injected into the hind region. After a recovery period, PDT was performed by intratumoral injection of Ce6 followed 4 hours later by wireless delivery of the light dose. […] Control groups were left untreated; received Ce6 injections only, received sham devices only, or given light doses using functional devices without Ce6 injection. […] Monitoring of tumor volume ended 13 days after first treatment, beyond which tumors in the majority of the mice from control groups either reached ethical size limits or were ulcerated. […] Tumor volumes cleared by PDT at the prescribed light dose are consistent with light transport calculations and measurements.
# ROS production [7] = assay: ROS production by Ce6 illuminated with wireless LED mesh device (405 nm or 660 nm); conditions: UV/violet (405 nm) light versus red (660 nm) light
# Excerpt: Depending on the absorption spectrum of the photosensitizer used and the size of the tumor, the devices can be customized to emit a suitable light wavelength. The photosensitizer Ce6 (chlorin e6) has a strong absorption peak at 405 nm and a weaker one at 660 nm.
# FIG. 33A is a graph showing production of reactive oxygen species (ROS) by Ce6 when illuminated using a wireless illumination device emitting red (660 nm) light. FIG. 33B is a graph showing production of reactive oxygen species (ROS) by Ce6 when illuminated using a wireless illumination device emitting UV/violet (405 nm) light.
# [8] = test system: solid tumor from MB49 bladder cancer cells; assay: Histology after a single round of PDT, wireless device versus direct laser illumination; assay type: in vivo, mice
# Description: We compared the therapy to PDT by direct laser illumination, the current clinical standard, by histological examination of the tissue following a single round of treatment. […] The white lines labelled “T.B.” indicates a tissue boundary. Tumor-bearing mice were injected intratumorally with Ce6 and administered either the prior light dose using the wireless device or using a red laser (660 nm) collimated to a 5-mm diameter spot.
# [9] = intratumoral Ce6 + red laser (660 nm), 5-mm spot
# [10] = intratumoral Ce6 + wireless device light dose
compound,measurement,setting,value
[Zn+2].c1ccc2c(c1)-c1nc-2nc2[n-]c(nc3nc([n-]c4nc(n1)-c1ccccc1-4)-c1ccccc1-3)c1ccccc21 [zinc phthalocyanine],levels of ROS in vitro (normalized fluorescence),ROS production [1],comparable levels of ROS
Chlorin e6 [Ce6],ROS production in Ce6 solution,ROS production [2],significant ROS production
same,cell death,C6 rat glioma cells,about 80%
same,ROS-induced fluorescence signal,"MB49 cells [3]; Ce6 + laser illumination, beam obstructed with thick tissue",insignificant ROS-induced fluorescence
same,ROS-induced fluorescence signal,"MB49 cells [3]; Ce6 + laser illumination, direct irradiation",effective only under direct irradiation
same,ROS-induced fluorescence signal,"MB49 cells [3]; Ce6 + wireless illumination, close proximity to radio-frequency source",increased signal
same,ROS-induced fluorescence signal,"MB49 cells [3]; Ce6 + wireless illumination, through thick tissue",increased signal
same,ROS production,MB49 cells [3]; Ce6 exposure alone (no light),did not result in significant ROS production
same,apoptosis index (TUNEL assay),"MB49 cells [4]; Ce6 + laser, direct",high apoptosis
same,apoptosis index (TUNEL assay),"MB49 cells [4]; Ce6 + laser, through 3 cm tissue",low and comparable to the untreated control scenario
same,apoptosis index (TUNEL assay),"MB49 cells [4]; Ce6 + wireless device, direct (near-field)",high apoptosis
same,apoptosis index (TUNEL assay),"MB49 cells [4]; Ce6 + wireless device, through 3 cm tissue (mid-field)",high apoptosis
same,change in cell viability (MTS assay),"MB49 cells [5]; Ce6 + laser illumination obstructed by thick (3 cm) tissue, P=0.178",did not result in a significant difference in cell viability
same,change in cell viability (MTS assay),"MB49 cells [5]; Ce6 + laser illumination, direct",effective at reducing cell viability
same,cell kill (MTS assay),"MB49 cells [5]; Ce6 + wireless light delivery through thick (3 cm) tissue (mid-field), P=0.0039",~80%
same,cell kill (MTS assay),"MB49 cells [5]; Ce6 + wireless light delivery, direct (near-field), P=0.0027",~80%
same,body weight over the treatment period,[6]; across all groups of mice incl. Ce6 + wireless light,did not show appreciable weight loss
same,tumor volume as a function of time,"[6]; intratumoral Ce6, wireless light dose 1.3 mW 30 min 4 hours later, two treatments, monitored to 13 days after first treatment, vs control groups","suppression, and in some cases complete regression, of tumors"
same,apoptotic cells in resected tumors (TUNEL staining),[6]; treatment group (Ce6 + wireless light) compared to control groups,significantly greater population of apoptotic cells
same,ROS yield,ROS production [7],ROS yield is higher
same,apoptosis in explanted tumor tissues (TUNEL staining),[8]; [9],comparable apoptosis
same,damage in tissues adjacent to the tumor (TUNEL staining),[8]; [9],did not show significant damage
same,apoptosis in explanted tumor tissues (TUNEL staining),[8]; [10],comparable apoptosis
same,damage in tissues adjacent to the tumor (TUNEL staining),[8]; [10],did not show significant damage
